# According to US11767322B2 (BRISTOL-MYERS SQUIBB COMPANY, priority 2020, dated 2023):
# Where two headings read alike, the source gives them in different places.
# What was measured:
# [1] = target: GST-tagged PIK3Cδ in complex with PIK3R1 (Homo sapiens, UniProt O00329); experiment: PI3Kδ HTRF binding assay; details: read-out: PIK3CD IC50
# [2] = system: MLKL phosphorylation in HT29-L23 human colorectal adenocarcinoma cells; experiment: MLKL phosphorylation high-content assay; assay type: cell-based
# [3] = target: T1, His-GST-TVMV-hRIPK1(1-324) (Homo sapiens, UniProt Q13546); experiment: biochemical; assay type: binding
# T1 construct: The coding region of human RIPK1(1-324) flanked by NdeI site at 5′ end; made in house; host or cells: Spodoptera frugiperda Sf9 insect cells (baculovirus, Bac-to-Bac)
# T1 sequence (Q13546 1-324): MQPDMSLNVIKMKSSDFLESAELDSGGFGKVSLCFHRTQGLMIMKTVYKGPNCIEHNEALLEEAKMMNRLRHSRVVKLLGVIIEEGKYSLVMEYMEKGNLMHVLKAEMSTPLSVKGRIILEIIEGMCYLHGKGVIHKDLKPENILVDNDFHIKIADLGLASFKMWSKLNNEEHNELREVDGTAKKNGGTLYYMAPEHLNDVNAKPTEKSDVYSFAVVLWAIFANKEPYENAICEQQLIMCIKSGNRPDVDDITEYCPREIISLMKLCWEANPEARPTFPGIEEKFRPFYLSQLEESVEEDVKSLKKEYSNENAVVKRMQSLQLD
# [4] = HTRF probe displacement, 1 h at rt
# [5] = read-out: pMLKL IC50, HT29-L23 cells, necroptosis induced with TNFα, SMAC mimetic and Z-VAD, 6 h, maximal inhibition defined by Nec1s
# [6] = HTRF probe displacement, 1 h at rt, read-out: RIPK1 IC50
# [7] = Homo sapiens, 6 h, read-out: pMLKL IC50, HT29-L23 cells, necroptosis induced with TNFα, SMAC mimetic and Z-VAD, 6 h, maximal inhibition defined by Nec1s
# Chain of GST-tagged PIK3Cδ in complex with PIK3R1 (O00329 whole entry): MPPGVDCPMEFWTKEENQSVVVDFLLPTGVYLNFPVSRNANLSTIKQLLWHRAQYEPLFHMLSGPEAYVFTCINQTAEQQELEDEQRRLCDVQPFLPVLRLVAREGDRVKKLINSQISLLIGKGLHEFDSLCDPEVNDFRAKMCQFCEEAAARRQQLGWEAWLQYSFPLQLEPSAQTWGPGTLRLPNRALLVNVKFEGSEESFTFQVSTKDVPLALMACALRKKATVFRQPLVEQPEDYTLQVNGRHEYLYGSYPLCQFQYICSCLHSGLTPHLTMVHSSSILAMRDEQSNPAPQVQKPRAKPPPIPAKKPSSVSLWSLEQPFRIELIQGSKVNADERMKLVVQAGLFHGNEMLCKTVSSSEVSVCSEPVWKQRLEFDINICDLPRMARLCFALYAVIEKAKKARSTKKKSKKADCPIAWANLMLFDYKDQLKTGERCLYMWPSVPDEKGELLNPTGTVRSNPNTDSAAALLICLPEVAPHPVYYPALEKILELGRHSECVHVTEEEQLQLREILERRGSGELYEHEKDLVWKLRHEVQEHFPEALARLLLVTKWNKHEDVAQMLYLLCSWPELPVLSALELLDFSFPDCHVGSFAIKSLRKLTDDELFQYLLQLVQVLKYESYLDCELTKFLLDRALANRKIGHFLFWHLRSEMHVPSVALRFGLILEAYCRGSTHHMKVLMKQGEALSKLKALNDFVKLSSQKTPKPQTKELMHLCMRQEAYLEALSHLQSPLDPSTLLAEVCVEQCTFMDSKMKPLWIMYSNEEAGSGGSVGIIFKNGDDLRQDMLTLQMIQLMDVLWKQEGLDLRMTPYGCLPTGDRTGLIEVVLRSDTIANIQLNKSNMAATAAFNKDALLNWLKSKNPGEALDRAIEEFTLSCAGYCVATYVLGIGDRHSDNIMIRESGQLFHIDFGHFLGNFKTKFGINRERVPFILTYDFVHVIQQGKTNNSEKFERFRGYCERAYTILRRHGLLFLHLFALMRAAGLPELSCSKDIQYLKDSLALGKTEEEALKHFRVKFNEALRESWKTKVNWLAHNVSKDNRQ
# Chain of GST-tagged PIK3Cδ in complex with PIK3R1 (P27986 whole entry partner): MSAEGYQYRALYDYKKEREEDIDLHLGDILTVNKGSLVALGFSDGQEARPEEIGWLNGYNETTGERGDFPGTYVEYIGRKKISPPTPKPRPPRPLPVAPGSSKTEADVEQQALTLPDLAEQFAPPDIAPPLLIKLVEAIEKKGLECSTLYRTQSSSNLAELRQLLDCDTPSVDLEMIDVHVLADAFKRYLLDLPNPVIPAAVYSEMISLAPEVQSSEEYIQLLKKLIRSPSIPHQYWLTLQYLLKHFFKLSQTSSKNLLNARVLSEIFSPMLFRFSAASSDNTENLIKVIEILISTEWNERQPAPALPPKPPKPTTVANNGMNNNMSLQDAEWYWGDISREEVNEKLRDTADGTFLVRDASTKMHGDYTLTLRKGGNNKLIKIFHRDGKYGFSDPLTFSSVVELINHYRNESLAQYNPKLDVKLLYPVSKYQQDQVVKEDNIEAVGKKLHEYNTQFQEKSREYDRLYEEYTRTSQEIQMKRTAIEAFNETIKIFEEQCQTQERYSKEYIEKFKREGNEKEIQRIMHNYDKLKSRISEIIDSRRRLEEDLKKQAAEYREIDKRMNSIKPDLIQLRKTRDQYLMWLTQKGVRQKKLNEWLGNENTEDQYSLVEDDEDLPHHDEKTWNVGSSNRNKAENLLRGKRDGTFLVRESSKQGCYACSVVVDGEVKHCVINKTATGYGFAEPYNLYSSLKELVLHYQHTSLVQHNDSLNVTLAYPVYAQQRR
compound,measurement,setting,value
"Cc1ccc(-c2ccn3nc(N)nc3c2)c(F)c1C(=O)NCC(F)(F)C(C)(O)c1ccc(Cl)cc1 (single isomer, unassigned) [Example 222, 3-(2-amino-[1,2,4]triazolo[1,5-a]pyridin-7-yl)-N-(3-(4-chlorophenyl)-2,2-difluoro-3-hydroxybutyl)-2-fluoro-6-methylbenzamide]",IC50,[1]; [4],> 15 µM
same,IC50,[2]; [5],1 nM
same,IC50,[3]; [6],3.2 nM
"Cc1cc(F)c(-c2ccn3nc(N)nc3c2)cc1C(=O)NCC(F)(F)C(O)c1ccc(F)cc1 (single isomer, unassigned) [Example 98, 5-(2-amino-[1,2,4]triazolo[1,5-a]pyridin-7-yl)-N-(2,2-difluoro-3-(4-fluorophenyl)-3-hydroxypropyl)-4-fluoro-2-methylbenzamide]",IC50,[1]; [4],> 15 µM
same,IC50,[2]; [5],1.2 nM
same,IC50,[3]; [6],2.8 nM
"Nc1nc2cc(-c3ccc(F)c(C(=O)NCCC4(c5ccc(F)cc5)CC4)c3F)ccn2n1 [Example 249, 3-(2-amino-[1,2,4]triazolo[1,5-a]pyridin-7-yl)-2,6-difluoro-N-(2-(1-(4-fluorophenyl)cyclopropyl)ethyl)benzamide]",IC50,[1]; [4],> 15 µM
same,IC50,[2]; [7],10 nM
same,IC50,[3]; [6],2.1 nM
"CC(O)(c1ccc(Cl)cc1)C(F)(F)CNC(=O)c1c(Cl)ccc(-c2ccn3nc(N)nc3c2)c1F (single isomer, unassigned) [Example 223, 3-(2-amino-[1,2,4]triazolo[1,5-a]pyridin-7-yl)-6-chloro-N-(3-(4-chlorophenyl)-2,2-difluoro-3-hydroxybutyl)-2-fluorobenzamide]",IC50,[1]; [4],> 15 µM
same,IC50,[2]; [5],71 nM
same,IC50,[3]; [6],5.8 nM
"Cc1c(C(=O)NCC[C@H](O)c2ccc(Cl)cc2)cc(-c2ccn3nc(N)nc3c2)c(F)c1F [Example 99, (S)-5-(2-amino-[1,2,4]triazolo[1,5-a]pyridin-7-yl)-N-(3-(4-chlorophenyl)-3-hydroxypropyl)-3,4-difluoro-2-methylbenzamide]",IC50,[1]; [4],> 15 µM
same,IC50,[2]; [7],2.9 nM
same,IC50,[3]; [6],5.5 nM
"Cc1ccc(-c2ccn3nc(N)nc3c2)c(F)c1C(=O)NCCCC1CCCCC1 [Example 52, 3-(2-amino-[1,2,4]triazolo[1,5-a]pyridin-7-yl)-N-(3-cyclohexylpropyl)-2-fluoro-6-methylbenzamide]",IC50,[1]; [4],> 15 µM
same,IC50,[2]; [7],1.1 nM
same,IC50,[3]; [6],0.3 nM
"Cc1ccc(-c2ccn3nc(N)nc3c2)c(F)c1C(=O)NCCC(O)c1cccc(Cl)c1 (centres unmarked) [Example 43, 3-(2-amino-[1,2,4]triazolo[1,5-a]pyridin-7-yl)-N-(3-(3-chlorophenyl)-3-hydroxypropyl)-2-fluoro-6-methylbenzamide]",IC50,[1],11 µM
same,IC50,[2]; [7],2.6 nM
same,IC50,[3]; [6],3.2 nM
"Cc1ccc(-c2ccn3nc(N)nc3c2)c(F)c1C(=O)NCCC(O)c1ccc(Cl)c(Cl)c1 (single isomer, unassigned) [Example 33, 3-(2-amino-[1,2,4]triazolo[1,5-a]pyridin-7-yl)-N-(3-(3,4-dichlorophenyl)-3-hydroxypropyl)-2-fluoro-6-methylbenzamide]",IC50,[1]; [4],> 15 µM
same,IC50,[2]; [7],0.7 nM
same,IC50,[3]; [6],1 nM
"Nc1nc2cc(-c3ccc(Cl)c(C(=O)NCC(F)(F)C(O)c4ccc(OC(F)F)cc4)c3F)ccn2n1 (centres unmarked) [Example 187, 3-(2-amino-[1,2,4]triazolo[1,5-a]pyridin-7-yl)-6-chloro-N-(3-(4-(difluoromethoxy)phenyl)-2,2-difluoro-3-hydroxypropyl)-2-fluorobenzamide]",IC50,[1]; [4],> 15 µM
same,IC50,[2]; [5],1.7 nM
same,IC50,[3]; [6],3.2 nM
"Cc1ccc(-c2ccn3nc(N)nc3c2)cc1C(=O)NCC[C@H](O)c1ccc(Cl)cc1 [Example 149, (S)-5-(2-amino-[1,2,4]triazolo[1,5-a]pyridin-7-yl)-N-(3-(4-chlorophenyl)-3-hydroxypropyl)-2-methylbenzamide]",IC50,[1]; [4],> 15 µM
same,IC50,"[2]; Homo sapiens, 6 h, HT29-L23 cells, necroptosis induced with TNFα, SMAC mimetic and Z-VAD, 6 h, maximal inhibition defined by Nec1s, read-out: pMLKL IC50",1.3 nM
same,IC50,"[2]; Homo sapiens, Table 22, compounds of the present invention, read-out: pMLKL IC50",1.3 nM
same,IC50,[3]; [6],8.2 nM
same,IC50,"[3]; Table 22, compounds of the present invention, read-out: RPIK1 IC50",8.2 nM
"Cc1ccc(-c2ccn3nc(N)nc3c2)c(F)c1C(=O)NC(C)CC(O)c1ccc(F)cc1 (single isomer, unassigned) [Example 39, 3-(2-amino-[1,2,4]triazolo[1,5-a]pyridin-7-yl)-2-fluoro-N-(4-(4-fluorophenyl)-4-hydroxybutan-2-yl)-6-methylbenzamide]",IC50,[1]; [4],> 15 µM
same,IC50,[2]; [5],397 nM
same,IC50,[3]; [6],163 nM
"CCc1ccc(-c2ccn3nc(N)nc3c2)cc1C(=O)NCC[C@H](O)c1ccc(Cl)cc1 [Example 150, (S)-5-(2-amino-[1,2,4]triazolo[1,5-a]pyridin-7-yl)-N-(3-(4-chlorophenyl)-3-hydroxypropyl)-2-ethylbenzamide]",IC50,[1]; [4],> 15 µM
same,IC50,[2]; [7],5.7 nM
same,IC50,[3]; [6],1.8 nM
"Cc1ccc(-c2ccn3nc(N)nc3c2)c(F)c1C(=O)NCC(F)(F)C(=O)c1ccc(F)cc1 [Example 281, 3-(2-amino-[1,2,4]triazolo[1,5-a]pyridin-7-yl)-N-(2,2-difluoro-3-(4-fluorophenyl)-3-oxopropyl)-2-fluoro-6-methylbenzamide]",IC50,[1]; [4],> 15 µM
same,IC50,[2]; [7],1.3 nM
same,IC50,[3]; [6],7.2 nM
"CCc1ccc(-c2ccn3nc(N)nc3c2)c(F)c1C(=O)NCC[C@H](O)c1ccc(Cl)cc1 [Example 155, (S)-3-(2-amino-[1,2,4]triazolo[1,5-a]pyridin-7-yl)-N-(3-(4-chlorophenyl)-3-hydroxypropyl)-6-ethyl-2-fluorobenzamide]",IC50,[1]; [4],> 15 µM
same,IC50,[2]; [7],0.6 nM
same,IC50,[3]; [6],2.7 nM
"Nc1nc2cc(-c3ccc(Cl)c(C(=O)NC[C@@H](F)[C@@H](O)c4ccc(F)cc4)c3F)ccn2n1 (single isomer, unassigned) [Example 298]",IC50,[1]; [4],8 µM
same,IC50,[2]; [7],0.5 nM
same,IC50,[3]; [6],2.9 nM
"Cc1ccc(-c2ccn3nc(N)nc3c2)c(F)c1C(=O)NC(CF)CC(O)c1ccc(F)cc1 (single isomer, unassigned) [Example 26, 3-(2-amino-[1,2,4]triazolo[1,5-a]pyridin-7-yl)-2-fluoro-N-(1-fluoro-4-(4-fluorophenyl)-4-hydroxybutan-2-yl)-6-methylbenzamide]",IC50,[1]; [4],> 15 µM
same,IC50,[2]; [5],696 nM
same,IC50,[3]; [6],233 nM
"Nc1nc2cc(-c3ccc(Cl)c(C(=O)NCC(F)(F)C(O)c4ccc(Cl)c(F)c4)c3F)ccn2n1 (centres unmarked) [Example 190, 3-(2-amino-[1,2,4]triazolo[1,5-a]pyridin-7-yl)-6-chloro-N-(3-(4-chloro-3-fluorophenyl)-2,2-difluoro-3-hydroxypropyl)-2-fluorobenzamide]",IC50,[1]; [4],> 15 µM
same,IC50,[2]; [7],0.7 nM
same,IC50,[3]; [6],3.3 nM
"Cc1ccc(-c2ccn3nc(N)nc3c2)c(F)c1C(=O)NCCC(c1ccccc1)C(F)(F)F (racemic) [Example 11, 3-(2-amino-[1,2,4]triazolo[1,5-a]pyridin-7-yl)-2-fluoro-6-methyl-N-(4,4,4-trifluoro-3-phenylbutyl)benzamide]",IC50,[1]; [4],> 15 µM
same,IC50,[2]; [7],5.9 nM
same,IC50,[3]; [6],1.2 nM
"Nc1nc2cc(-c3ccc(Cl)c(C(=O)NCCC(O)c4ccc(Cl)cn4)c3F)ccn2n1 (single isomer, unassigned) [Example 82, 3-(2-amino-[1,2,4]triazolo[1,5-a]pyridin-7-yl)-6-chloro-N-(3-(5-chloropyridin-2-yl)-3-hydroxypropyl)-2-fluorobenzamide]",IC50,[1]; [4],12 µM
same,IC50,[2]; [7],26 nM
same,IC50,[3]; [6],27 nM
"Cc1ccc(-c2ccn3nc(N)nc3c2)c(Cl)c1C(=O)NCC[C@H](O)c1ccc(Cl)cc1 [Example 145, (S)-3-(2-amino-[1,2,4]triazolo[1,5-a]pyridin-7-yl)-2-chloro-N-(3-(4-chlorophenyl)-3-hydroxypropyl)-6-methylbenzamide]",IC50,[1]; [4],> 15 µM
same,IC50,[2]; [7],35 nM
same,IC50,[3]; [6],21 nM
"Cc1ccc(-c2ccn3nc(N)nc3c2)c(F)c1C(=O)NCC(F)(F)C(O)c1ccc(F)c(F)c1 (single isomer, unassigned) [Example 199, 3-(2-amino-[1,2,4]triazolo[1,5-a]pyridin-7-yl)-N-(3-(3,4-difluorophenyl)-2,2-difluoro-3-hydroxypropyl)-2-fluoro-6-methylbenzamide]",IC50,[1]; [4],> 15 µM
same,IC50,[2]; [5],0.6 nM
same,IC50,[3]; [6],1.4 nM
"Cc1ccc(-c2ccn3nc(N)nc3c2)c(F)c1C(=O)NC(CF)CC(O)c1ccc(F)cc1 (single isomer, unassigned) [Example 28, 3-(2-amino-[1,2,4]triazolo[1,5-a]pyridin-7-yl)-2-fluoro-N-(1-fluoro-4-(4-fluorophenyl)-4-hydroxybutan-2-yl)-6-methylbenzamide]",IC50,[1]; [4],8.8 µM
same,IC50,[2]; [5],4.9 nM
same,IC50,[3]; [6],5.1 nM
"Nc1nc2cc(-c3ccc(Cl)c(C(=O)NCC(F)C(O)c4ccc(F)cc4)c3F)ccn2n1 (stereo not drawn) [Example 130, 3-(2-amino-[1,2,4]triazolo[1,5-a]pyridin-7-yl)-6-chloro-2-fluoro-N-(2-fluoro-3-(4-fluorophenyl)-3-hydroxypropyl)benzamide enantiomeric mixture 1]",IC50,[1]; [4],4.9 µM
same,IC50,[2]; [7],2.9 nM
same,IC50,[3]; [6],7.4 nM
